These results are taken from publication PMC9458148 (Molecules, 2022).

For assay [1], the target named is T1, Tyrosinase (Agaricus bisporus, UniProt C7FF04). The experiment in a line: Tyrosinase assay (inhibitory activity, L-tyrosine substrate, product detected at 475 nm). The class given is biochemical. Set-up: purchased Sigma–Aldrich T3824. The settings on record: for Inhibitory Ratio at 50 μM: 50 μM compound. The procedure:
(§1) To assess the inhibitory effect of compounds on tyrosinase, 130 μL tyrosinase in 0.05 mM phosphate buffer (pH 6.8) was aliquoted into 96-well plates, and 20 μL of each compound at concentrations ranging from 0.5 to 0.0075 mM was added. Next, 50 μL 1.2 mM L-tyrosine in phosphate buffer was diluted to calculate the inhibitory activity. Finally, 50 μL 10–0.62 mM l-tyrosine in buffer was added to analyze the initial velocity (v0). Twenty minutes after starting the reaction, the amount of product was detected at 475 nm. The inhibitory activity was calculated using the following equation: Inhibitory activity rate (%) = [(ΔC − ΔS)/ΔC] × 100, where C and S are the intensity of control and inhibitor after 20 min, respectively.
Target sequence in this assay (C7FF04 1-392 limits assumed): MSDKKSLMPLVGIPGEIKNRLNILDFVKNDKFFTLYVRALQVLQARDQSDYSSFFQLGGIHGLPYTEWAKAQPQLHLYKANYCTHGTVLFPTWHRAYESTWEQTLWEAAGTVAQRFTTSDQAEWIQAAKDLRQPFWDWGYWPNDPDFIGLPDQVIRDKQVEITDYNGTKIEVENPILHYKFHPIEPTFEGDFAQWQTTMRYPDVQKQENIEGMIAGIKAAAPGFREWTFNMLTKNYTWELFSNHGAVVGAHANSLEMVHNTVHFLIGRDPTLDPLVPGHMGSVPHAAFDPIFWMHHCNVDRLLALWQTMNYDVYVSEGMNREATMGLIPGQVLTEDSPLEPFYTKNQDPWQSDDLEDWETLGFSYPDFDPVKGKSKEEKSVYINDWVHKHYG

Assay [2] addresses T1, Tyrosinase. The assay is described as follows: Enzyme kinetics on tyrosinase (Lineweaver–Burk and Dixon plots). The class given is biochemical. The settings on record: various substrate concentrations. As to the method:
The v0 was calculated at ~10% of the substrate conversion rate by tyrosinase. The results are shown as Lineweaver–Burk plots (Figure 2A–C and Table 1).
as §1
Target sequence in this assay (C7FF04 2-392): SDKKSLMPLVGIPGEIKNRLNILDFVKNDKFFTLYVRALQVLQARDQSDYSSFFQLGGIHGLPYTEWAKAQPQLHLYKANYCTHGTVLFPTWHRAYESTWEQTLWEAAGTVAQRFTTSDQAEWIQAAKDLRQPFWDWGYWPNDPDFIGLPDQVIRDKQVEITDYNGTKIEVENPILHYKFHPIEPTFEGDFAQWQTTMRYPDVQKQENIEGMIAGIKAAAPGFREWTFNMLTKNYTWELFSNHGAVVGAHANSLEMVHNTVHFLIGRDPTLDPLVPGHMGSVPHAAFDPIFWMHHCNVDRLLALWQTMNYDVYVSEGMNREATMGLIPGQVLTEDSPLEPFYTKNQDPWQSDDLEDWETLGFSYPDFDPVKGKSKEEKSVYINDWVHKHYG

[3] abbreviates: Mean ± SEM, tested three times, read-out: IC50.

In general, IC50 refers to the concentration that gives 50% inhibition.

Read-outs that look alike come from different tables or passages of the source.

Consider `Oc1cc(O)c2ccc(-c3ccc(O)c(O)c3)[o+]c2c1` [Compound 1, luteolinidin], for which, on Tyrosinase [1], the concentration for half-maximal inhibition (IC50) came to 3.7 ± 0.8 µM and the “Inhibitory activity on tyrosinase (in words)” value (“Inhibitory activity” for short) is “most potent inhibitors”. Also, the “Binding Mode” value at Tyrosinase [2] is listed as “Competitive inhibitor”.

Take `COc1cc(-c2[o+]c3cc(O)cc(O)c3cc2O[C@@H]2O[C@H](CO)[C@@H](O)[C@H](O)[C@H]2O)cc(O)c1O` [Compound 2, petunidin 3-O-glucoside]: at Tyrosinase [1], the “Inhibitory activity” value is reported as “most potent inhibitors”. Besides, the “Inhibitory Ratio at 50 μM” value on Tyrosinase [1] (tested three times) worked out at 69.2 ± 1.0%. The IC50 at Tyrosinase [1] (setting [3]) was determined as 10.3 ± 1 µM. On Tyrosinase [2], the “Binding Mode” value is “Competitive inhibitor”.

Turning to `OC[C@H]1O[C@@H](Oc2cc3c(O)cc(O)cc3[o+]c2-c2cc(O)c(O)c(O)c2)[C@H](O)[C@@H](O)[C@H]1O` [Compound 3, delphinidin 3-O-galactoside], the “Inhibitory activity” value on Tyrosinase [1] is reported as “moderate inhibitory activity”. Moreover, the “Inhibitory Ratio at 50 μM” value at Tyrosinase [1] (tested three times) turned out to be 55.2 ± 0.9%. Further, the concentration for half-maximal inhibition (IC50) at Tyrosinase [1] (setting [3]) turned out to be 41.3 ± 3.2 µM. The “Binding Mode” value at Tyrosinase [2] is recorded as “Competitive inhibitor”.

Take `OC[C@H]1O[C@@H](Oc2cc3c(O)cc(O)cc3[o+]c2-c2ccc(O)c(O)c2)[C@H](O)[C@@H](O)[C@@H]1O` [Compound 4, kuromanin (cyanidin 3-O-glucoside)]: the “Inhibitory Ratio at 50 μM” value on Tyrosinase [1] (tested three times) was −1.9 ± 40.0%.

As for `OC[C@H]1O[C@@H](Oc2cc3c(O)cc(O)cc3[o+]c2-c2cc(O)c(O)c(O)c2)[C@H](O)[C@@H](O)[C@@H]1O` [Compound 5, delphinidin 3-O-glucoside], the “Inhibitory Ratio at 50 μM” value on Tyrosinase [1] (tested three times) is reported as 47.5 ± 3.2%.

Consider `OC[C@H]1O[C@@H](Oc2cc3c(O)cc(O)cc3[o+]c2-c2ccc(O)cc2)[C@H](O)[C@@H](O)[C@@H]1O` [Compound 6, callistephin (pelargonidin 3-O-glucoside)], for which the “Inhibitory Ratio at 50 μM” value on Tyrosinase [1] (tested three times) was 6.5 ± 2.1%.
